ChEMBL document CHEMBL1201862, “PubChem BioAssay data set” (2004)
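Step 1: Grow cells in 96-well plates. Step 2: Expose to compound for 48 hours at 5 concentrations. Step 3: Interpolate endpoints linearly; if unreached, use highest concentration. At the GI50, growth is halved.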 Calls of active or inactive are those of the source. Cut-off read from the data, not from the text of the source: active = GI50 up to about 1.1 µM and inactive = higher.

Assays:
Assay in all cases: inhibition of tumour cell growth, NCI panel, 48 h
MDA-MB-231 = system: MDA-MB-231
K562 = system: K562
COLO 205 = system: COLO 205
PC-3 = system: PC-3
HOP-62 = system: HOP-62
MDA-MB-435 = system: MDA-MB-435
SW-620 = system: SW-620
HL-60 = system: HL-60
TK-10 = system: TK-10
OVCAR-3 = system: OVCAR-3
DU-145 = system: DU-145
786-0 = system: 786-0
MCF7 = system: MCF7
SK-MEL-5 = system: SK-MEL-5
MOLT-4 = system: MOLT-4
HT-29 = system: HT-29
U-251 = system: U-251
T47D = system: T47D
UACC-257 = system: UACC-257
Malme-3M = system: Malme-3M

Compound	GI50 (MDA-MB-231)	GI50 (K562)	GI50 (COLO 205)	GI50 (PC-3)	GI50 (HOP-62)	GI50 (MDA-MB-435)	GI50 (SW-620)	GI50 (HL-60)	GI50 (TK-10)	GI50 (OVCAR-3)	GI50 (DU-145)	GI50 (786-0)	GI50 (MCF7)	GI50 (SK-MEL-5)	GI50 (MOLT-4)	GI50 (HT-29)	GI50 (U-251)	GI50 (T47D)	GI50 (UACC-257)	GI50 (Malme-3M)
COC1=CC(=O)c2c(cc(COP(N)(=O)N(CCCl)CCCl)n2C)C1=O (stereo not drawn)	2.33 µM (inactive)	1.52 µM (inactive)	1.39 µM (inactive)	1.49 µM (inactive)	2.18 µM (inactive)	1.61 µM (inactive)	0.158 µM (active)	0.302 µM (active)	1.67 µM (inactive)	0.342 µM (active)	1.75 µM (inactive)	0.0277 µM (active)	0.0767 µM (active)	1.36 µM (inactive)	0.0141 µM (active)	0.186 µM (active)	0.0822 µM (active)	< 0.0486 µM (active)	3.28 µM (inactive)	1.4 µM (inactive)
BC(=O)NC(CC(C)C)C(=O)NCC(=O)NC1c2ccsc2C(=O)C1O.CN(C)C (stereo not drawn)	> 100 µM (inactive)	31.6 µM (inactive)	> 100 µM (inactive)	> 100 µM (inactive)	> 100 µM (inactive)	> 100 µM (inactive)	> 100 µM (inactive)	> 100 µM (inactive)	> 100 µM (inactive)	> 100 µM (inactive)	> 100 µM (inactive)	> 100 µM (inactive)	2.37 µM (inactive)	> 100 µM (inactive)	> 100 µM (inactive)	> 100 µM (inactive)	> 100 µM (inactive)	> 100 µM (inactive)	> 100 µM (inactive)	> 100 µM (inactive)
COc1ccccc1/C=C/C1=NN(c2cccc(S(=O)(=O)O)c2)C2(C1)C(Cl)C(=O)N2c1nc2ccccc2s1 (stereo not drawn)	> 94.6 µM (inactive)	31.4 µM (inactive)	88.9 µM (inactive)	76.6 µM (inactive)	> 100 µM (inactive)	54.6 µM (inactive)	> 100 µM (inactive)	22.1 µM (inactive)	45.1 µM (inactive)	31.5 µM (inactive)	67 µM (inactive)	37.8 µM (inactive)	40.7 µM (inactive)	28.6 µM (inactive)	34 µM (inactive)	82.4 µM (inactive)	52.7 µM (inactive)	12.1 µM (inactive)	56.8 µM (inactive)	> 100 µM (inactive)
Oc1cc(F)cc2cccnc12	1.54 µM (inactive)	0.105 µM (active)	5.89 µM (inactive)	1.27 µM (inactive)	2.56 µM (inactive)	2.38 µM (inactive)	0.855 µM (active)	0.0887 µM (active)	17.9 µM (inactive)	0.0975 µM (active)	5.58 µM (inactive)	7.29 µM (inactive)	0.0689 µM (active)	0.998 µM (active)	0.206 µM (active)	4.47 µM (inactive)	0.957 µM (active)	1.3 µM (inactive)	0.402 µM (active)	0.628 µM (active)
COc1cc(O)c(C(=O)/C=C/c2ccc(O)cc2)cc1Oc1ccc(/C=C/C(=O)c2ccc(O)cc2O)cc1 [RHUSCHALCONE III]	15 µM (inactive)	9.75 µM (inactive)	8.43 µM (inactive)	7.21 µM (inactive)	10.8 µM (inactive)	8.77 µM (inactive)	11.2 µM (inactive)	10.4 µM (inactive)	9.79 µM (inactive)	8.07 µM (inactive)	10.2 µM (inactive)	8.73 µM (inactive)	8.69 µM (inactive)	7.36 µM (inactive)	11.3 µM (inactive)	7.57 µM (inactive)	7.98 µM (inactive)	15.3 µM (inactive)	10.1 µM (inactive)	8.38 µM (inactive)
COc1cc2c(cc1Cl)[n+]([O-])c(C#N)c(N1CCN(c3ccc([N+](=O)[O-])cc3)CC1)[n+]2[O-]	41.8 µM (inactive)	9.29 µM (inactive)	34.4 µM (inactive)	17.9 µM (inactive)	8.34 µM (inactive)	19.5 µM (inactive)	22.5 µM (inactive)	51.2 µM (inactive)	27.3 µM (inactive)	52.6 µM (inactive)	13.8 µM (inactive)	12.7 µM (inactive)	6 µM (inactive)	16.6 µM (inactive)	5 µM (inactive)	36.9 µM (inactive)	7.78 µM (inactive)	3.48 µM (inactive)	14.8 µM (inactive)	14.8 µM (inactive)
CC(CC[C@@H](O)C(C)(C)O)C1[C@@H](O)CC2(C)C3CC(O)C4C(C)(C)[C@@H](OC5OC(CO)C(O)C(O)C5O)CC[C@@]45C[C@@]35CC[C@]12C (stereo partly drawn)	> 10 µM (inactive)	> 10 µM (inactive)	> 10 µM (inactive)	> 10 µM (inactive)	> 10 µM (inactive)	> 10 µM (inactive)	> 10 µM (inactive)	> 10 µM (inactive)	> 10 µM (inactive)	> 10 µM (inactive)	> 10 µM (inactive)	> 10 µM (inactive)	> 10 µM (inactive)	> 10 µM (inactive)	> 10 µM (inactive)	> 10 µM (inactive)	> 10 µM (inactive)	> 10 µM (inactive)	> 10 µM (inactive)	> 10 µM (inactive)
C=C1C(=O)O[C@H]2[C@H]3O[C@@H](C[C@@H]12)[C@](C)(O)CC[C@@H]1O[C@@]1(C)CCC[C@H]3C	25.1 µM (inactive)	23 µM (inactive)	16.4 µM (inactive)	32 µM (inactive)	78.3 µM (inactive)	17.1 µM (inactive)	19.2 µM (inactive)	27 µM (inactive)	17.1 µM (inactive)	16.7 µM (inactive)	12.6 µM (inactive)	11.7 µM (inactive)	21.4 µM (inactive)	14.7 µM (inactive)	30.3 µM (inactive)	25.6 µM (inactive)	22.4 µM (inactive)	25.5 µM (inactive)	22.9 µM (inactive)	12 µM (inactive)
O=[N+]([O-])/C(C(Cl)=C(Cl)Cl)=C1\NCCO1	> 100 µM (inactive)	> 100 µM (inactive)	> 100 µM (inactive)	> 100 µM (inactive)	> 100 µM (inactive)	> 100 µM (inactive)		81.5 µM (inactive)	> 100 µM (inactive)	52.5 µM (inactive)	> 100 µM (inactive)	> 100 µM (inactive)	> 100 µM (inactive)	> 100 µM (inactive)	69.5 µM (inactive)	> 100 µM (inactive)	> 100 µM (inactive)	59.4 µM (inactive)	> 100 µM (inactive)	45.8 µM (inactive)
Cc1cc(Cc2c(F)c(F)c(Cc3cc(C)no3)c(F)c2F)on1	46.6 µM (inactive)	> 100 µM (inactive)	> 100 µM (inactive)	> 100 µM (inactive)	25.4 µM (inactive)	> 100 µM (inactive)		> 100 µM (inactive)	54.2 µM (inactive)	> 100 µM (inactive)	> 100 µM (inactive)	38.8 µM (inactive)	> 100 µM (inactive)	28.4 µM (inactive)	> 100 µM (inactive)	> 100 µM (inactive)	64.1 µM (inactive)	> 100 µM (inactive)	> 100 µM (inactive)	> 100 µM (inactive)
